Source: article PMC8815882, “Screening the pandemic response box identified benzimidazole carbamates, Olorofim and ravuconazole as promising drug candidates for the treatment of eumycetoma” (PLoS Neglected Tropical Diseases, 2022)
pIC50: −log10 of the molar value. Like-named read-outs stand apart in the source and are kept apart here.

Tests used:
[1] = system: M. mycetomatis genome strain MM55; test: CLSI M38-A2 based in vitro susceptibility screening (XTT or resazurin), growth at fixed concentration; assay type: cell-based, Madurella mycetomatis; details: Madurella mycetomatis
M. mycetomatis MM55 = test: IC50 determination, 2-fold dilution series 16 to 0.03125 μM; assay type: cell-based, Madurella mycetomatis
[2] = 25 uM, mean of three, M. mycetomatis MM55, read-out: Percentage survival at 25um, 25 uM mean
[3] = 25 uM, replicate A, M. mycetomatis MM55, read-out: Percentage survival at 25um, 25 um A
[4] = 25 uM, replicate B, M. mycetomatis MM55, read-out: Percentage survival at 25um, 25 uM B
[5] = 25 uM, replicate C, M. mycetomatis MM55, read-out: Percentage survival at 25um, 25 uM C
[6] = mean of three, M. mycetomatis MM55, read-out: Percentage survival at 100um, 100 uM mean
[7] = replicate 1, M. mycetomatis MM55, read-out: Percentage survival at 100um, 100 uM A (first replicate column)
[8] = replicate 2, M. mycetomatis MM55, read-out: Percentage survival at 100um, 100 uM A (second replicate column)
[9] = replicate 3, M. mycetomatis MM55, read-out: Percentage survival at 100um, 100 uM A (third replicate column)
[10] = Madurella mycetomatis, MM55, mean of replicates; read-out: IC50 mean
[11] = Madurella mycetomatis, MM55; replicate 1; read-out: IC50 1 um
[12] = Madurella mycetomatis, MM55; replicate 1; read-out: IC90 1 um
[13] = Madurella mycetomatis, MM55; replicate 2; read-out: IC50 2 um
[14] = Madurella mycetomatis, MM55; replicate 2; read-out: IC90 2 um
[15] = Madurella mycetomatis, MM55; replicate 3; read-out: IC50 3 um
[16] = Madurella mycetomatis, MM55; replicate 3; read-out: IC90 3 um
[17] = 25 uM, mean of three replicates, read-out: Percentage survival at 25um, 25 uM mean
[18] = 25 uM, replicate A, read-out: Percentage survival at 25um, 25 um A
[19] = 25 uM, replicate B, read-out: Percentage survival at 25um, 25 uM B
[20] = 25 uM, replicate C, read-out: Percentage survival at 25um, 25 uM C
[21] = mean of three replicates, read-out: Percentage survival at 100um, 100 uM mean
[22] = replicate 1, read-out: Percentage survival at 100um, 100 uM A (first replicate column)
[23] = replicate 2, read-out: Percentage survival at 100um, 100 uM A (second replicate column)
[24] = replicate 3, read-out: Percentage survival at 100um, 100 uM A (third replicate column)
[25] = Madurella mycetomatis, MM55, mean of three replicates; read-out: IC50 mean
[26] = Madurella mycetomatis, MM55, mean of three replicates; read-out: IC90 mean
[27] = 25 uM, mean, read-out: Percentage survival at 25um, 25 uM mean
[28] = mean, read-out: Percentage survival at 100um, 100 uM mean
[29] = replicate (first column), read-out: Percentage survival at 100um, 100 uM A
[30] = replicate (second column), read-out: Percentage survival at 100um, 100 uM A
[31] = replicate (third column), read-out: Percentage survival at 100um, 100 uM A
[32] = Madurella mycetomatis, MM55; read-out: IC90 mean
[33] = Madurella mycetomatis, MM55; replicate 1; read-out: IC50 1
[34] = Madurella mycetomatis, MM55; replicate 1; read-out: IC90 1
[35] = Madurella mycetomatis, MM55; replicate 2; read-out: IC50 2
[36] = Madurella mycetomatis, MM55; replicate 2; read-out: IC90 2
[37] = Madurella mycetomatis, MM55; replicate 3; read-out: IC50 3
[38] = Madurella mycetomatis, MM55; replicate 3; read-out: IC90 3

Row | SMILES | pIC50 (M. mycetomatis MM55; [11]) | IC90 (M. mycetomatis MM55; [12]) [µM] | pIC50 (M. mycetomatis MM55; [13]) | IC90 (M. mycetomatis MM55; [14]) [µM] | pIC50 (M. mycetomatis MM55; [15]) | IC90 (M. mycetomatis MM55; [16]) [µM] | activity at 25 µM [1, 2] [%] | activity at 25 µM [1, 3] [%] | activity at 25 µM [1, 4] [%] | activity at 25 µM [1, 5] [%] | activity at 100 µM [1, 6] [%] | activity at 100 µM [1, 7] [%] | Percent fungal survival at 100 µM [1, 8] [%] | activity at 25 µM [1, 18] [%] | activity at 25 µM [1, 19] [%] | activity at 25 µM [1, 20] [%] | activity at 100 µM [1, 21] [%] | activity at 100 µM [1, 22] [%] | activity at 100 µM [1, 24] [%] | Drug static or cidal (M. mycetomatis MM55) | other results
1 | FC(F)(F)Oc1ccc(Nc2ccc3cccc(Cl)c3n2)cc1 [MMV1581032] | < 4.60 | > 25 | < 4.60 | > 25 | < 4.60 | > 25 | – | – | – | – | – | – | – | -12.4 | 8.52 | 2.93 | 0.711 | -4.67 | 5.8 | Static | activity at 25 µM [1, 17]: -0.326%; Percent fungal survival at 100 µM [1, 23]: 1%; pIC50 (M. mycetomatis MM55; [25]): < 4.60; IC90 (M. mycetomatis MM55; [26]): > 25 µM
2 | CC(C)=CCC/C(C)=C/CNCCNC1C2CC3CC(C2)CC1C3 (centres unmarked) [MMV687273] | 4.62 | > 25 | 4.84 | 22.9 | < 4.60 | > 25 | 1.12 | -2.04 | 4.77 | 0.619 | 6.61 | 4.04 | 15.3 | – | – | – | – | – | – | – | activity at 100 µM [1, 9]: 0.477%; Drug static or cidal (M. mycetomatis MM55; M. mycetomatis): Cidal
3 | NCC(=O)Nc1ccc(-n2nc(C(F)(F)F)cc2-c2ccc3c(ccc4ccccc43)c2)cc1 [MMV1578560] | – | – | – | – | – | – | – | – | – | – | – | – | – | 29.4 | -2.28 | 2.05 | – | – | – | Static | activity at 25 µM [1, 27]: 9.74%; activity at 100 µM [1, 28]: 3%; activity at 100 µM [1, 29]: -6.61%; activity at 100 µM [1, 30]: 10.2%; activity at 100 µM [1, 31]: 5.38%; IC90 (M. mycetomatis MM55; [32]): > 25 µM; pIC50 (M. mycetomatis MM55; [33]): 4.76; IC90 (M. mycetomatis MM55; [34]): > 25 µM; pIC50 (M. mycetomatis MM55; [35]): 4.64; IC90 (M. mycetomatis MM55; [36]): > 25 µM; pIC50 (M. mycetomatis MM55; [37]): < 4.60; IC90 (M. mycetomatis MM55; [38]): > 25 µM
4 | Nc1c(C(=O)NCc2ccco2)c2nc3ccccc3nc2n1CCN1CCCCC1 [MMV099714] | – | – | – | – | – | – | – | – | – | – | – | – | – | 45.3 | – | – | 3.55 | -0.102 | 3.69 | Static | activity at 100 µM [1, 23]: 7.05%; activity at 25 µM ([1]; read-out: Percentage survival at 25um, 25 uM B): -3.06%; activity at 25 µM ([1]; read-out: Percentage survival at 25um, 25 uM C): 13%; activity at 25 µM ([1]; read-out: Percentage survival at 25um, 25 uM mean): 18.4%; pIC50 (M. mycetomatis MM55; Madurella mycetomatis, MM55, read-out: IC50 1 um): < 4.60; pIC50 (M. mycetomatis MM55; Madurella mycetomatis, MM55, read-out: IC50 2 um): < 4.60; pIC50 (M. mycetomatis MM55; Madurella mycetomatis, MM55, read-out: IC50 3 um): < 4.60; pIC50 (M. mycetomatis MM55; Madurella mycetomatis, MM55, read-out: IC50 mean): < 4.60; IC90 (M. mycetomatis MM55; Madurella mycetomatis, MM55, read-out: IC90 1 um): > 25 µM; IC90 (M. mycetomatis MM55; Madurella mycetomatis, MM55, read-out: IC90 2 um): > 25 µM; IC90 (M. mycetomatis MM55; Madurella mycetomatis, MM55, read-out: IC90 3 um): > 25 µM; IC90 (M. mycetomatis MM55; Madurella mycetomatis, MM55, read-out: IC90 mean): > 25 µM
5 | O=[N+]([O-])c1ccc2c(CCc3c[nH]c4ccccc34)c[nH]c2c1 [MMV1593539] | 5.49 | 18 | 4.80 | 23.4 | 4.74 | 23.7 | 4.51 | 2.73 | 8.11 | 2.7 | 47.9 | 0.0782 | 136 | – | – | – | – | – | – | – | activity at 100 µM [1, 9]: 7.7%; Drug static or cidal (M. mycetomatis MM55; M. mycetomatis): Cidal; pIC50 (M. mycetomatis MM55; [10]): 4.91; IC90 (M. mycetomatis MM55; Madurella mycetomatis, MM55, mean of replicates; read-out: IC90 mean): 21.7 µM
6 | CCOC(=O)Nc1cc(NC(C)CC(C)CN(CC)CC)c2nc(-c3ccccc3)c(-c3ccccc3)nc2n1 (centres unmarked) [MMV1633967] | – | – | – | – | – | – | – | – | – | – | – | – | – | -4.99 | 0.0169 | -0.146 | – | – | – | Static | activity at 25 µM [1, 27]: -1.71%; activity at 100 µM [1, 28]: 60.2%; activity at 100 µM [1, 29]: 73.9%; activity at 100 µM [1, 30]: 96.6%; activity at 100 µM [1, 31]: 10.1%; pIC50 (M. mycetomatis MM55; Madurella mycetomatis, MM55, mean; read-out: IC50 mean): < 4.60; IC90 (M. mycetomatis MM55; [32]): > 25 µM; pIC50 (M. mycetomatis MM55; [33]): < 4.60; IC90 (M. mycetomatis MM55; [34]): > 25 µM; pIC50 (M. mycetomatis MM55; [35]): < 4.60; IC90 (M. mycetomatis MM55; [36]): > 25 µM; pIC50 (M. mycetomatis MM55; [37]): < 4.60; IC90 (M. mycetomatis MM55; [38]): > 25 µM

The next lines start with results.

Row | pIC50 (M. mycetomatis MM55; [11]) | IC90 (M. mycetomatis MM55; [12]) [µM] | pIC50 (M. mycetomatis MM55; [13]) | IC90 (M. mycetomatis MM55; [14]) [µM] | pIC50 (M. mycetomatis MM55; [15]) | IC90 (M. mycetomatis MM55; [16]) [µM] | SMILES | activity at 25 µM [1, 2] [%] | activity at 25 µM [1, 3] [%] | activity at 25 µM [1, 4] [%] | activity at 25 µM [1, 5] [%] | activity at 100 µM [1, 6] [%] | activity at 100 µM [1, 7] [%] | Percent fungal survival at 100 µM [1, 8] [%] | activity at 25 µM [1, 18] [%] | activity at 25 µM [1, 19] [%] | activity at 25 µM [1, 20] [%] | activity at 100 µM [1, 21] [%] | activity at 100 µM [1, 22] [%] | activity at 100 µM [1, 24] [%] | Drug static or cidal (M. mycetomatis MM55) | other results
7 | 5.37 | > 25 | 4.78 | 24 | 4.91 | 23.5 | Nc1nnnn1CCOc1c2[nH]c3ccc(Cl)cc3c2cc2c1[nH]c1ccc(Cl)cc12 [MMV1633966] | 3.05 | 1.67 | 3.75 | 3.74 | 3.34 | 3.63 | 1.28 | – | – | – | – | – | – | – | activity at 100 µM [1, 9]: 5.11%; Drug static or cidal (M. mycetomatis MM55; M. mycetomatis): Cidal; pIC50 (M. mycetomatis MM55; [10]): 4.96
8 | 5.18 | 20 | 4.79 | 23.9 | 4.86 | 22.8 | N=C(N)NCCCCC(=O)Nc1cc(C(F)(F)F)cc(NC(=O)c2cc(C(=O)Nc3cc(C(F)(F)F)cc(NC(=O)CCCCNC(=N)N)c3O[C@@H]3CCNC3)ncn2)c1O[C@@H]1CCNC1 [MMV1634402] | – | – | – | – | – | – | – | 3.69 | 8.57 | 29.8 | 18.1 | 14.1 | 20.5 | Cidal | activity at 25 µM [1, 17]: 14%; Percent fungal survival at 100 µM [1, 23]: 19.7%; pIC50 (M. mycetomatis MM55; [25]): 4.92; IC90 (M. mycetomatis MM55; [26]): 22.2 µM
9 | 4.85 | 22.3 | 5.01 | 22.7 | 4.95 | 21 | Cc1nc2ccc(Oc3ccccc3)cc2c2c1CCN2CCc1ccccc1 [MMV1634399] | – | – | – | – | – | – | – | -3.19 | -1.6 | 16.4 | 0.985 | 1.91 | 1.92 | Cidal | activity at 25 µM [1, 17]: 3.88%; Percent fungal survival at 100 µM [1, 23]: -0.867%; pIC50 (M. mycetomatis MM55; [25]): 4.93; IC90 (M. mycetomatis MM55; [26]): 22 µM
